# Test results published in the supplement of paper PMC10307832.
# Assays:
# Test in all cases: relative viability (nuclei count vs DMSO), 5 days (fraction); higher = more cells survive
# [1] = compound: CN1CCC(CC1)OC2=CC(=C(C=C2)NC3=NC=C4C(=N3)N(C(=O)N4C)C5CCCC5)OC [AZ3146] + CC1(C)CCC(c2ccc(Cl)cc2)=C(CN2CCN(c3ccc(C(=O)NS(=O)(=O)c4ccc(N[C@H](CCN5CCOCC5)CSc5ccccc5)c(S(=O)(=O)C(F)(F)F)c4)cc3)CC2)C1 [Navitoclax] (partner 0.5 µM)
# How it was run: (§1)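 A single step with final 0.05% Triton X-100, 1% formaldehyde and 1 ug/ml Hoechst fixed the cells and stained nuclei 5 days after treatment. Lung cancer cell lines in 1536-well plates had been treated by pin tool the day after seeding with one drug alone or a fixed anchor-drug dose plus five library-drug doses (not always all listed) in √10 steps, and nuclei were counted on 4× images. Relative viability is the ratio of nuclei in treated wells to nuclei in vehicle wells, taken as the median of duplicate plates.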
# [2] = compound: CCOC(=O)CCNc1cc(N2CCc3ccccc3CC2)nc(-c2ccccn2)n1 [GSK-J4] + CC(=O)c1c(C)c2cnc(Nc3ccc(N4CCNCC4)cn3)nc2n(C2CCCC2)c1=O [Palbociclib] (partner 0.5 µM)
# How it was run: as §1
# [3] = compound: CN1CCC(CC1)OC2=CC(=C(C=C2)NC3=NC=C4C(=N3)N(C(=O)N4C)C5CCCC5)OC [AZ3146] + Cc1nc(Nc2ncc(C(=O)Nc3c(C)cccc3Cl)s2)cc(N2CCN(CCO)CC2)n1 [Dasatinib] (partner 0.075 µM)
# How it was run: as §1
# [4] = compound: CN1CCC(CC1)OC2=CC(=C(C=C2)NC3=NC=C4C(=N3)N(C(=O)N4C)C5CCCC5)OC [AZ3146] + CS(=O)(=O)N1CCN(Cc2cc3nc(-c4cccc5[nH]ncc45)nc(N4CCOCC4)c3s2)CC1 [Pictilisib] (partner 1 µM)
# How it was run: as §1
cell line,measurement,setting,value
UMC-11,relative viability,[1]; first compound 0.08 µM,0.32
same,relative viability,[1]; first compound 0.253 µM,0.27
same,relative viability,[1]; first compound 0.8 µM,0.302
same,relative viability,[1]; first compound 2.53 µM,0.312
same,relative viability,[1]; first compound 8 µM,0.252
same,relative viability,[2]; first compound 0.5 µM,0.367
same,relative viability,[2]; first compound 1.581 µM,0.288
same,relative viability,[2]; first compound 15.81 µM,0.35
same,relative viability,[2]; first compound 50 µM,0.241
same,relative viability,[3]; first compound 0.08 µM,0.426
same,relative viability,[3]; first compound 0.253 µM,0.562
same,relative viability,[3]; first compound 0.8 µM,0.463
same,relative viability,[3]; first compound 2.53 µM,0.452
same,relative viability,[3]; first compound 8 µM,0.257
same,relative viability,[4]; first compound 0.08 µM,0.698
same,relative viability,[4]; first compound 0.253 µM,0.99
same,relative viability,[4]; first compound 0.8 µM,0.706
same,relative viability,[4]; first compound 2.53 µM,0.802
same,relative viability,[4]; first compound 8 µM,0.513
